# Measurements published in ChEMBL document CHEMBL1132341, “Synthesis and characterization of fluorescent ligands for the norepinephrine transporter: potential neuroblastoma imaging agents” (J Med Chem, 1999).
# System: SK-N-SH
# Assay: Inhibition of [3H]NE uptake into human SK-N-SH-SY5Y Neuroblastoma cells
# Format: functional, cell-based
row,Structure (SMILES),IC50 [nM]
1,CNCCC(NS(=O)(=O)c1cccc2c(N(C)C)cccc12)c1ccccc1 (stereo not drawn),370
2,CNCCC(Nc1ccc([N+](=O)[O-])c2nonc12)c1ccccc1 (stereo not drawn),850
3,CCOC(=O)[C@@H]1[C@H](O/C(S)=N/c2ccc(/N=N/c3ccc(N(C)C)cc3)cc2)C[C@H]2CC[C@@H]1N2C,1320
4,CCOC(=O)[C@@H]1[C@H](OS(=O)(=O)c2cccc3c(N(C)C)cccc23)C[C@H]2CC[C@@H]1N2C,60
5,N=C(N)NCCN1c2ccccc2C=Cc2ccccc21,30
6,N=C(N)NCc1cccc2ccccc12,60
7,CNCCC(/N=C(\S)Nc1ccc(/N=N/c2ccc(N(C)C)cc2)cc1)c1ccccc1 (stereo not drawn),1020
8,N=C(N)NCc1ccc(/C=C/c2ccccc2)cc1,120
